The source of these data is US7763728B2, “Tetrahydropyridothiophenes” (4SC AG, priority 2005, dated 2010).

Test [1] has as its system RKO colon adenocarcinoma cells (RKOp27) arrested by the expression of ectopic p27Kip1. Put plainly: Alamar Blue cell viability assay on RKOp27 cells arrested by p27Kip1 expression induced by Ponasterone A. Format: cell-based. The following applies: Homo sapiens, 72 hours incubation, 10 μM Ponasterone A, read-out: IC50 RKO p27 induced (arrested). How it is done:
To determine the cell cycle specific mode of action, subclones of RKO colon adenocarcinoma cells (RKOp27 or RKOp21 as described by Schmidt et al. in Oncogene 19, 2423-2429; 2000) are seeded into 96 well flat bottom plates at a density of 15000 cells per well in a volume of 50 μl per well in DMEM growth medium with 10% FCS containing 10 μM Ponasterone A. 24 hours after seeding the 50 μl each of the compound dilutions in DMEM medium are added into each well of the 96 Well plate. Each compound dilution is tested as quadruplicates. Wells containing untreated control cells are filled with 50 μl DMEM medium containing 1% DMSO. The cells are then incubated with the substances for 72 hours at 37° C. in a humidified atmosphere containing 5% carbon dioxide. To determine the viability of the cells, 10 μl of an Alamar Blue solution (Biosource) are added and the fluorescence was measured at an extinction of 544 nm and an emission of 590 nm. For the calculation of the cell viability the emission value from untreated cells is set as 100% viability and the emission rates of treated cells are set in relation to the values of untreated cells. Viabilities are expressed as % values. Viability is compared of proliferating cells grown in the absence of the inducer Ponasterone A, versus viability of cells arrested by the expression of ectopic p27Kip1 induced by Ponasterone A.
(In general: Alamar Blue is a resazurin reagent that responds to reducing activity.)

In test [2] the test system is RKO (RKOp27) human colon adenocarcinoma cells. Briefly: Alamar Blue cell viability assay, anti-proliferative/cytotoxic activity on proliferating (uninduced) RKOp27 cells. The following applies: 72 hours incubation, absence of the inducer Ponasterone A, read-out: IC50 RKO p27 uninduced (proliferating). Format: cell-based. How it is done: The anti-proliferative/cytotoxic activity of the compounds described herein, can be tested on subclones of RKO (RKOp27) human colon adenocarcinoma cells (Schmidt et al., Oncogene 19, 2423-2429; 2000) using the Alamar Blue cell viability assay (described in O'Brien et al. Eur J Biochem 267, 5421-5426, 2000). The compounds are dissolved as 20 mM solutions in dimethylsulfoxide (DMSO) and subsequently diluted in semi-logarithmic steps. DMSO dilutions are further diluted 1:100 into Dulbecco's modified Eagle's medium (DMEM) containing 10% fetal calf serum to a final concentration twice as much as the final concentration in the test. RKO subclones are seeded into 96 well flat bottom plates at a density of 5000 cells per well in a volume of 50 μl per well. 24 hours after seeding the 50 μl each of the compound dilutions in DMEM medium are added into each well of the 96 Well plate. Each compound dilution is tested as quadruplicates. Wells containing untreated control cells are filled with 50 μl DMEM medium containing 1% DMSO. The cells are then incubated with the substances for 72 hours at 37° C. in a humified atmosphere containing 5% carbon dioxide. To determine the viability of the cells, 10 μl of an Alamar Blue solution (Biosource) are added and the fluorescence is measured at an extinction of 544 nm and an emission of 590 nm. For the calculation of the cell viability the emission value from untreated cells is set as 100% viability and the emission rates of treated cells are set in relation to the values of untreated cells. Viabilities are expressed as % values.
The corresponding IC50 values of the compounds for anti-proliferative/cytotoxic activity are determined from the concentration-effect curves.
Representative IC50 values for anti-proliferation/cytotoxicity determined in the mentioned assay follow from the following table A, in which the numbers of the compounds correspond to the numbers of the examples.

Each structure is given as a SMILES string. Where only a bound is given, the exact number is not on record here.

One may read the IC50 as the point on the concentration scale where inhibition reaches its midpoint. For the molecule `CCOc1ccccc1C(C)CC(=O)Nc1sc2c(c1C#N)CCN(C(=O)CCn1ccnc1)C2` (racemic) [Example 100, (RS)—N-[3-Cyano-6-(3-imidazol-1-yl-propanoyl)-4,5,6,7-tetrahydro-thieno[2,3-c]pyridin-2-yl]-3-(2-ethoxy-phenyl)-butyramide], the IC50 in test [1] is no less than 40000 nM; in test [2] it was 300 to 2000 nM.
The matching figures for `COc1ccccc1C(C)CC(=O)Nc1sc2c(c1C#N)CCN(C(=O)CCn1ccnc1C)C2` (racemic) [Example 105, (RS)—N-{3-Cyano-6-[3-(2-methyl-imidazol-1-yl)-propanoyl]-4,5,6,7-tetrahydro-thieno[2,3-c]pyridin-2-yl}-3-(2-methoxy-phenyl)-butyramide]: no less than 10000 nM and 300 to 2000 nM.
In the same order, the values of `CCOc1ccccc1C(C)CC(=O)Nc1sc2c(c1C#N)CCN(C(=O)CCn1ccnc1C)C2` (racemic) [Example 106, (RS)—N-{3-Cyano-6-[3-(2-methyl-imidazol-1-yl)-propanoyl]-4,5,6,7-tetrahydro-thieno[2,3-c]pyridin-2-yl}-3-(2-ethoxy-phenyl)-butyramide] are no less than 10000 nM and 300 to 2000 nM.
In the same order, the values of `COc1ccccc1C(C)CC(=O)Nc1sc2c(c1C#N)CCN(C(=O)CCc1nccn1C)C2` (racemic) [Example 113, (RS)—N-{3-Cyano-6-[3-(1-methyl-1H-imidazol-2-yl)-propanoyl]-4,5,6,7-tetrahydro-thieno[2,3-c]pyridin-2-yl}-3-(2-methoxy-phenyl)-butyramide] are no less than 10000 nM and 300 to 2000 nM.
For `CCOc1ccccc1C(C)CC(=O)Nc1sc2c(c1C#N)CCN(C(=O)CCc1nccn1C)C2` (racemic) [Example 114, (RS)—N-{3-Cyano-6-[3-(1-methyl-1H-imidazol-2-yl)-propanoyl]-4,5,6,7-tetrahydro-thieno[2,3-c]pyridin-2-yl}-3-(2-ethoxy-phenyl)-butyramide], the IC50 was no less than 10000 nM in test [1] and 300 to 2000 nM in test [2].
In the same order, the values of `COc1ccccc1C(C)CC(=O)Nc1sc2c(c1C#N)CCN(C(=O)CCc1ccncc1)C2` (racemic) [Example 120, (RS)—N-[3-Cyano-6-(3-pyridin-4-yl-propanoyl)-4,5,6,7-tetrahydro-thieno[2,3-c]pyridin-2-yl]-3-(2-methoxy-phenyl)-butyramide] are no less than 10000 nM and no more than 300 nM.
In the same order, the values of `CCOc1ccccc1C(C)CC(=O)Nc1sc2c(c1C#N)CCN(C(=O)CCc1ccncc1)C2` (racemic) [Example 121, (RS)—N-[3-Cyano-6-(3-pyridin-4-yl-propanoyl)-4,5,6,7-tetrahydro-thieno[2,3-c]pyridin-2-yl]-3-(2-ethoxy-phenyl)-butyramide] are no less than 10000 nM and 300 to 2000 nM.
For the molecule `COc1ccccc1C(C)CC(=O)Nc1sc2c(c1C#N)CCN(C(=O)Cn1ccnc1C)C2` (racemic) [Example 127, (RS)—N-{3-Cyano-6-[2-(2-methyl-imidazol-1-yl)-ethanoyl]-4,5,6,7-tetrahydro-thieno[2,3-c]pyridin-2-yl}-3-(2-methoxy-phenyl)-butyramide], the IC50 in test [1] is no less than 40000 nM; in test [2] it was no more than 300 nM.
Consider `CCOc1ccccc1C(C)CC(=O)Nc1sc2c(c1C#N)CCN(C(=O)Cn1ccnc1C)C2` (racemic) [Example 128, (RS)—N-{3-Cyano-6-[2-(2-methyl-imidazol-1-yl)-ethanoyl]-4,5,6,7-tetrahydro-thieno[2,3-c]pyridin-2-yl}-3-(2-ethoxy-phenyl)-butyramide], for which the IC50 is no less than 10000 nM in test [1] and no more than 300 nM in test [2].
In the same order, the values of `COc1ccccc1C(C)CC(=O)Nc1sc2c(c1C#N)CCN(C(=O)Cn1cnc(C)c1)C2` (racemic) [Example 135, (RS)—N-{3-Cyano-6-[2-(4-methyl-imidazol-1-yl)-ethanoyl]-4,5,6,7-tetrahydro-thieno[2,3-c]pyridin-2-yl}-3-(2-methoxy-phenyl)-butyramide] are no less than 40000 nM and 300 to 2000 nM.
Regarding `CCOc1ccccc1C(C)CC(=O)Nc1sc2c(c1C#N)CCN(C(=O)Cn1cnc(C)c1)C2` (racemic) [Example 136, (RS)—N-{3-Cyano-6-[2-(4-methyl-imidazol-1-yl)-ethanoyl]-4,5,6,7-tetrahydro-thieno[2,3-c]pyridin-2-yl}-3-(2-ethoxy-phenyl)-butyramide], the figures for the IC50 in test [1] and in test [2] were no less than 10000 nM and 300 to 2000 nM, respectively.
As to `CCOc1ccccc1C(C)CC(=O)Nc1sc2c(c1C#N)CCN(C(=O)CCc1ccccn1)C2` (racemic) [Example 137, (RS)—N-[3-Cyano-6-(3-pyridin-2-yl-propanoyl)-4,5,6,7-tetrahydro-thieno[2,3-c]pyridin-2-yl]-3-(2-ethoxy-phenyl)-butyramide], the IC50 was no less than 10000 nM in test [1] and no more than 300 nM in test [2].
The matching figures for `COc1ccccc1C(C)CC(=O)Nc1sc2c(c1C#N)CCN(C(=O)Cn1cc(C)nc1C)C2` (racemic) [Example 144, (RS)—N-{3-Cyano-6-[2-(2,4-dimethyl-imidazol-1-yl)-ethanoyl]-4,5,6,7-tetrahydro-thieno[2,3-c]pyridin-2-yl}-3-(2-methoxy-phenyl)-butyramide]: no less than 10000 nM and 300 to 2000 nM.
For `CCOc1ccccc1C(C)CC(=O)Nc1sc2c(c1C#N)CCN(C(=O)Cn1cc(C)nc1C)C2` (racemic) [Example 145, (RS)—N-{3-Cyano-6-[2-(2,4-dimethyl-imidazol-1-yl)-ethanoyl]-4,5,6,7-tetrahydro-thieno[2,3-c]pyridin-2-yl}-3-(2-ethoxy-phenyl)-butyramide], the IC50 in test [1] was no less than 10000 nM; in test [2], no more than 300 nM.
The matching figures for `COc1ccccc1C(C)CC(=O)Nc1sc2c(c1C#N)CCN(C(=O)CCn1cnc(C)c1)C2` (racemic) [Example 152, (RS)—N-{3-Cyano-6-[3-(4-methyl-imidazol-1-yl)-propanoyl]-4,5,6,7-tetrahydro-thieno[2,3-c]pyridin-2-yl}-3-(2-methoxy-phenyl)-butyramide]: no less than 10000 nM and 300 to 2000 nM.
The matching figures for `CCOc1ccccc1C(C)CC(=O)Nc1sc2c(c1C#N)CCN(C(=O)CCn1cnc(C)c1)C2` (racemic) [Example 153, (RS)—N-{3-Cyano-6-[3-(4-methyl-imidazol-1-yl)-propanoyl]-4,5,6,7-tetrahydro-thieno[2,3-c]pyridin-2-yl}-3-(2-ethoxy-phenyl)-butyramide]: no less than 10000 nM and 300 to 2000 nM.
As to `COc1ccccc1CCC(=O)Nc1sc2c(c1C#N)CCN(C(=O)CCc1cccnc1)C2` [Example 1, N-[3-Cyano-6-(3-pyridin-3-yl-propanoyl)-4,5,6,7-tetrahydro-thieno[2,3-c]pyridin-2-yl]-3-(2-methoxy-phenyl)-propionamide], the IC50 in test [1] is greater than 100000 nM; in test [2], no more than 300 nM.
The matching figures for `COc1ccccc1CCC(=O)Nc1sc2c(c1C#N)CCN(C(=O)Cc1cccnc1)C2` [Example 2, N-[3-Cyano-6-(2-pyridin-3-yl-ethanoyl)-4,5,6,7-tetrahydro-thieno[2,3-c]pyridin-2-yl]-3-(2-methoxy-phenyl)-propionamide]: no less than 40000 nM and no more than 300 nM.
Regarding `COc1ccccc1CCC(=O)Nc1sc2c(c1C#N)CCN(C(=O)Cc1ccncc1)C2` [Example 3, N-[3-Cyano-6-(2-pyridin-4-yl-ethanoyl)-4,5,6,7-tetrahydro-thieno[2,3-c]pyridin-2-yl]-3-(2-methoxy-phenyl)-propionamide], the IC50 in test [1] is no less than 40000 nM; in test [2], no more than 300 nM.
In the same order, the values of `COC(=O)CCC(=O)N1CCc2c(sc(NC(=O)CCc3ccccc3OC)c2C#N)C1` [Example 4, 4-{3-Cyano-2-[3-(2-methoxy-phenyl)-propanoylamino]-4,7-dihydro-5H-thieno[2,3-c]pyridin-6-yl}-4-oxo-butyric acid methyl ester] are greater than 100000 nM and 300 to 2000 nM.
